What all share (assay type): in vivo
Assay [1] deals with GIT1 knock-out mouse. The experiment in a line: Novel object recognition test of GIT1 knock-out mouse. Particulars: peritoneal injection 4 mg/kg/day, 20 minutes before the sample phase, versus saline, FIG. 6C. On the procedure: A novel object recognition test for assessment of object recognition and memory performance using the GIT1 knock-out mouse was performed in the same open space box as used in the open field test. The novel object recognition test included a sample phase and a test phase. During the sample phase, the mouse was allowed to detect the same two objects placed in an open space box for 10 minutes and, by video shooting the sample phase, times of observing both the objects by the mouse were recorded. As a result, it was found in FIG. 6A that a difference in object detection time between the normal mouse and the GIT1 knock-out mouse is not statistically significant. Further, one of the same two objects, for example, was replaced by a novel object not exposed to the mouse and, after 24 hours, a test period was proceeded. Such a test period was 10 minutes and a time of observing two objects by the mouse was measured during the test period. In this regard, if the nose end of the mouse contacts the object or the mouse heads for the object within 2 cm before the same, this was defined as the observation. For observing recovery of the object recognition and/or memory performance, the present inventive mouse was administered with amphetamine or saline through peritoneal injection at a dose of 4 mg/kg/day and placed in an open space box, 20 minutes before the sample phase.

The subject of a further assay is normal mouse (wild type). The assay can be described thus: Open field test of normal mouse (control). Particulars: peritoneal injection just before test, one time, amphetamine 4 mg/kg/day, methylphenidate 2 mg/kg/day, 60 minutes. On the procedure: (§1) In order to observe hyperactivity of mice using the GIT1 knock-out mice of the present invention, an open field test was executed in a novel environment. A GIT1 knock-out mouse and a normal mouse (wild type) as a control, each mouse being aged 2 to 5 months, were prepared. An open space was prepared using a white box which is never exposed to the mice and has a dimension of 40-40-40 cm (width-length-height). After placing each mouse in the center of the open space and video shooting a distance of the mouse for 60 minutes, results thereof including, for example, a total distance, an average movement speed, a central space invasion rate, etc., were assayed through an activity analysis program. For analysis of behavior in the open space, amphetamine (4 mg/kg/day, one time) and methylphenidate (2 mg/kg/day, one time) used as ADHD protection drugs were administered through peritoneal injection just before placing the mouse therein, followed by immediately placing the mouse in the center of the open space.

In assay [2] the test system is GIT1 knock-out mouse. The experiment in a line: Open field test of GIT1 knock-out mouse. As to conditions: peritoneal injection just before test, one time, amphetamine 4 mg/kg/day, methylphenidate 2 mg/kg/day, 60 minutes, FIGS. 3B and 3C. The procedure: as §1
For assay [3], the system named is GIT1 knock-out mouse. The assay can be described thus: EEG analysis of theta section waveform in the frontal lobe of GIT1 knock-out mouse. Particulars: after administering amphetamine, compared to a control having saline, FIG. 7C. On the procedure: A process of assaying an abnormal theta section waveform and a power spectrum density in the frontal lobe using the GIT1 knock-out mouse according to the present invention was executed after administering ketamine to a mouse through peritoneal injection at a dose of 150 mg/kg to anesthetize the mouse and fixing the head of the mouse to a stereotaxic instrument. EEG electrodes were inserted into both the right frontal lobe and the left frontal lobe. More particularly, a correct fixing position was set by calculating a correct coordinate having the front side of 2.8 mm and each lateral side of 0.8 mm with reference to the bregma, via the stereotaxic instrument. A grounding electrode was inserted into the occipital lobe. After inserting the electrodes and 1 week recovery period, the mouse was placed in an EEG chamber to measure a brain wave for 1 hour. EEG signals were amplified using a Grass model 7H polygraph (Grass Technologies) and digitalized at a sampling frequency of 2000 Hz using DIGIDATA 1320A (Molecular Devices), followed by acquisition of data using pClamp8.0 program (Axon Instruments) and analysis thereof.

Data on two compounds can be found in patent US8552253B2, “Screening of drug for attention deficit hyperactive disorder by using GIT1 knock-out mice as a novel ADHD mouse model” (Korea Advanced Institute of Science and Technology, priority 2011, dated 2013).

For `CC(N)Cc1ccccc1` (stereo not drawn) [amphetamine], in the assay with GIT1 knock-out mouse [1], the “object recognition ability (novel object recognition)” value is on record as “can be recovered”. Besides, in the assay with normal mouse (wild type), the “movement distance of the normal mouse in open space” value was “considerably long distance”. The “movement distance of the GIT1 knock-out mouse in open space (hyperactivity)” value in the assay with GIT1 knock-out mouse [2] is recorded as “significant recovery”. In addition, the “abnormal theta waveform in the frontal lobe (EEG)” value in the assay on GIT1 knock-out mouse [3] was “favorably recovered”.
On to `COC(=O)C(c1ccccc1)C1CCCCN1` (stereo not drawn) [methylphenidate], for which, in the assay with normal mouse (wild type), the “movement distance of the normal mouse in open space” value is reported as “considerably long distance”. The “movement distance of the GIT1 knock-out mouse in open space (hyperactivity)” value with GIT1 knock-out mouse [2] was “significant recovery”.
